Results published in article PMC11809919, “Quinoxaline-based anti-schistosomal compounds have potent anti-plasmodial activity” (PLOS Pathogens, 2025).
Several values for one entry are separate records, joined by “and”; a condition that tells them apart may be missing. Equal entries are not always repeated. Where two headings read alike, the source gives them in different places.

Experiments:
P. falciparum Dd2 [1] = assay: Rate of killing (CFDA-SE labelled RBC reinvasion); type: cell-based, Plasmodium falciparum; settings: Dd2, 10×IC50, 24 h or 48 h
Experimental: The rate of killing was evaluated as previously described in Linares et al.. […] After treatment, the compound was removed, and the culture was diluted (1/3) using fresh RBCs (2% haematocrit) pre-labelled with CFDA-SE (carboxylfluorescein diacetate succinimidyl ester, Life Technologies). Following a 48 h incubation under standard conditions, the ability of treated parasites to infect fresh labelled RBCs was measured using a Cytoflex flow cytometer by quantifying double-positive RBCs after labelling the parasites with MitoTracker Deep Red. Parasite viability was determined as the percentage of infected CFDA-SE-labelled RBCs in drug-treated samples at 24 and 48 h, compared to equivalent untreated controls. Standard compounds dihydroartemisinin, chloroquine, and atovaquone were used as benchmarks for comparing the killing rate of the test compounds.

[2] = test system: P. falciparum PfQRP1 mutants (G1612V, D1863Y, D1829*, D1829A); assay: Dose-response assay on CRISPR-edited PfQRP1 mutant lines; type: cell-based, Plasmodium falciparum; settings: for Susceptibility in CRISPR-edited G1612V and D1863Y PfQRP1 lines: versus silent-mutation and wildtype controls
Experimental: To generate the PfQRP1 hydrolase mutants (D1829stop and D1829A), the pDC2-Cas9-gRNA-donor plasmid was transfected into the P. falciparum Dd2 line. Donor plasmid (50 µg) containing the sgRNA ([…]) and a pfqrp1 homology region of 672 bp, centred on the D1829 residue, was used for transfection. Transfectants were selected using 5 nM WR99210 (a potent inhibitor of P. falciparum dihydrofolate reductase (DHFR) provided by Jacobus Pharmaceuticals) for 8 days, followed by culturing without drug until parasites were observed. Parasite clones were obtained using limiting dilution cloning. Confirmation of gene editing was performed with allele-specific PCR (forward primer […] and reverse primer […]) and Sanger sequencing using an internal primer ([…]).
(§1) Compound dose-response assays were performed in flat-bottom 96-well plates. Tightly synchronized ring-stage parasites were diluted to 1% parasitemia at 2% hematocrit, and incubated with a two-fold serial dilution of compounds in complete medium. Untreated parasites or uninfected RBCs were included in the assay plate as controls. Parasite growth was assessed after 72 h by lysing parasites using 2× lysis buffer consisting of 10 mM Tris-HCl, 5 mM EDTA, 0.1% w/v saponin, and 1% v/v Triton X-100, supplemented with 2× SYBR Green I (Molecular Probes). The fluorescence was measured using a FluorStar Omega v5.11 plate reader. IC50 analysis was performed using GraphPad Prism v9, and statistical significance was determined by a two-sided Mann-Whitney U test. All assays were performed in technical duplicate with at least three biological replicates, as noted in the figure legends.

HepG2 cells = test system: HepG2 cells; set-up: method as in Padalino et al. [13]; settings: ref Padalino et al. [13], cited from earlier work
[3] = test system: Dd2-Polδ clones C22-1.1 and C22-2.1; assay: Dose-response assay on compound 22-selected clones (cross-resistance); type: cell-based, Plasmodium falciparum
Experimental: Resistance selections were performed using a mutator parasite line Dd2-Polδ with an elevated mutation rate. Three independent flasks with either 1×10^8 or 1×10^9 parasites each were treated with 5×IC50, and parasite death was monitored by microscopy (Giemsa staining). […] After eight days, compounds were removed from the media and the media was changed on alternate days. […] For recrudescent cultures, compound susceptibility was determined by dose-response assays. Parasite clones were obtained by limiting dilution and harvested for genomic DNA extraction, followed by whole-genome sequencing.
as §1

[4] = test system: P. falciparum ring, trophozoite and schizont stages; assay: Stage specificity assay; type: cell-based, Plasmodium falciparum; settings: for Stage-specificity: 10 h pulse at ring, trophozoite or schizont stage
Experimental: Stage-specific drug assays were performed following a protocol modified from Murithi et al.. In this assay, parasites were tightly synchronized to the ring stage with repeated 5% sorbitol treatments. On the assay day, schizonts were purified using a 63% Percoll gradient and allowed to […]. […] Parasites were then plated in 96-well plates and exposed to different drug concentrations at various stages: […] Drug treatment was removed through three rounds of washes. Plates were lysed 62 h after drug washout, and parasite growth was assessed similarly to the standard 72 h assay that used constant drug exposure.

S. mansoni schistosomula = test system: S. mansoni schistosomula; set-up: method as in Padalino et al. [13]; settings: ref Padalino et al. [13], cited from earlier work
P. falciparum 3D7 = assay: Compound dose-response assay (72 h, SYBR Green I), 3D7; type: cell-based, Plasmodium falciparum; settings: for IC50: 72 h, asexual blood stage; for Selectivity index HepG2/3D7: HepG2 72 h CC50 / Pf 3D7 IC50
Experimental: (§2) P. falciparum parasites were cultured at 3% hematocrit in RPMI 1640 (Gibco) medium consisting of 0.5% Albumax II (Gibco), 25 mM HEPES (Sigma), 0.21% sodium bicarbonate, 1x GlutaMAX (Gibco), 25 μg/mL gentamicin (Gibco). A tri-gas mixture (1% O2, 3% CO2, and 96% N2) was used for parasite cultures. Parasites were synchronized using a sorbitol and Percoll density gradient method. The following parasite strains were used: 3D7, Dd2 (MR4, MRA-156, T. Wellems), GB4 (MR4, MRA-925, T. Wellems), UG659 (P. Rosenthal), Tanzania (MR4, MRA-1169, Michal Fried), Cam/PH0212C (R. Fairhurst), and Cam3.II/ PH0306-C (R. Fairhurst). Transfection was performed using ring-stage parasites (5–8% parasitemia) using a Gene Pulser Xcell (Biorad) electroporator.
as §1

P. falciparum Dd2 [5] = assay: Compound dose-response assay (72 h, SYBR Green I), Dd2; type: cell-based, Plasmodium falciparum; settings: for IC50: 72 h, asexual blood stage; for Selectivity index HepG2/Dd2: HepG2 72 h CC50 / Pf Dd2 IC50
Experimental: as §2, §1

[6] = test system: P. falciparum strains Cam/PH0212C, Cam3.II/PH0306-C, UG659, GB4, Tanzania; assay: Dose-response assay against panel of geographically distinct strains; type: cell-based, Plasmodium falciparum; settings: Cambodian isolates
Experimental: as §2, §1

[7] = test system: P. berghei liver stage parasites; set-up: method as in PMID 22096101; settings: cited from earlier work
S. mansoni adult worms = test system: S. mansoni adult worms; set-up: method as in PMID 24416463; settings: 400 compounds of the Malaria Box; cited from earlier work
[8] = test system: 3D7 parasites (hemoglobin, 'free' heme, hemozoin); assay: Cellular heme fractionation assay; type: cell-based, Plasmodium falciparum; settings: 3D7, 0.5 – 2.5× IC50, 30 h
Description: Cellular heme fractionation to measure the amounts of different heme species was thereafter conducted as previously described. […] Pellets were then resuspended in 1× PBS (pH 7.5) and an aliquot of the trophozoite suspension used to quantify the total number of trophozoites isolated using flow cytometry. Contents of the remaining trophozoite pellet were then released by hypotonic lysis and sonication. […] The UV−visible spectrum of each heme fraction as an Fe(III)heme−pyridine complex was measured using a multi-well plate reader (Spectramax 340PC; Molecular Devices). The total amount of each heme species was quantified using a heme standard curve whereby the mass of each heme-Fe species per trophozoite (fg/cell) was calculated by dividing the total amount of each heme species by the corresponding number of parasites in that fraction as determined by flow cytometry. Statistical comparisons and analyses for trends were made on GraphPad Prism version 10 using Students’ t-test with Welch correction. The total amount of heme obtained from each fraction was quantified using a standard curve prepared from a 100 μg/mL heme standard solution of hematin (porcine) in 0.3 M NaOH. Serial dilutions of this standard were carried out in a 96-well plate with 100 μL 0.3 M NaOH as a blank. […] The visible spectra of heme as Fe(III)heme-pyridine complex were recorded in a multi-well plate reader. The amount of heme Fe per cell was calculated by dividing the total heme Fe in each fraction by the number of cells determined in each fraction.

β-hematin formation = assay: Detergent-based β-hematin inhibition assay; type: biochemical; settings: cell-free, NP40 detergent, pH 4.8; read-out: βH Inhibition IC50, individual biological replicate
Experimental: From this stock 40 μL of each was delivered to wells in the final column (column 12) of a 96-well plate together with distilled water (120 μL) and NP40 detergent (305.5 mM, 40 μL). […] A serial dilution of each compound (100 μL) from column 12 to column 2 was carried out. Column 1 served as a blank with 0 mM sample. A 25 mM hematin stock solution was prepared by sonicating hemin in DMSO for one minute and then suspending 179 μL of this in a 1 M acetate buffer (20 mL, pH 4.8). […] The plate was covered and incubated at 37°C for 5 h. […] Acetone (60 μL) was then added to assist with hematin dispersion. The UV-vis absorbance of the plate wells was read on a SpectraMax […] plate reader.

[9] = HepG2, 24 h, read-out: 24 h CC50
[10] = HepG2, 72 h, read-out: 72 h CC50
[11] = 72 h, read-out: 72 h -phenotype EC50
[12] = average of phenotype and motility, read-out: Average EC50
[13] = Plasmodium falciparum, 3D7, 72 h
[14] = Plasmodium falciparum, DD2, 72 h

O=[N+]([O-])c1ccc2nc(Nc3ccc(Cl)c(Cl)c3)c(Nc3ccc(Cl)c(Cl)c3)nc2c1 [Compound 22]
Rate of parasite killing (P. falciparum Dd2 [1]): rapidly reduced parasitemia
Effect of D1829 stop / D1829A PfQRP1 mutation on IC50 [2]: elevated IC50
Increase in IC50 in D1829A / D1829 stop PfQRP1 mutants [2]: 2–3 fold
Susceptibility in CRISPR-edited G1612V and D1863Y PfQRP1 lines [2]: reduced susceptibility
CC50 (HepG2 cells; [9]): 7400 nM
CC50 (HepG2 cells; [10]): 260 nM
Shift in IC50 in compound 22-selected clones versus parental Dd2-Polδ [3]: small but consistent shift in IC50
Drop in potency for a 10 h pulse compared with continuous exposure for 72 h [4]: 3–4 fold
Stage-specificity [4]: did not demonstrate a strong stage-specificity
EC50 (S. mansoni schistosomula; [11]): 470 nM
EC50 (S. mansoni schistosomula; [12]): 440 nM
EC50 (S. mansoni schistosomula; read-out: Motility EC50): 420 nM
IC50 (P. falciparum 3D7): 21.9 nM
Selectivity index HepG2/3D7 (P. falciparum 3D7): 11.9
IC50 (P. falciparum 3D7; [13]): 22 nM
IC50 (P. falciparum Dd2 [5]): 32.4 nM
Selectivity index HepG2/Dd2 (P. falciparum Dd2 [5]): 8.0
IC50 (P. falciparum Dd2 [5]; [14]): 32 nM
Potency against panel of geographically distinct strains [6]: potencies similar to those recorded for the lab strain Dd2

O=[N+]([O-])c1ccc2nc(Nc3ccc(C(F)(F)F)cc3)c(Nc3ccc(C(F)(F)F)cc3)nc2c1 [Compound 31]
Rate of parasite killing (P. falciparum Dd2 [1]): rapidly reduced parasitemia
Effect of D1829 stop / D1829A PfQRP1 mutation on IC50 [2]: elevated IC50
Increase in IC50 in D1829A / D1829 stop PfQRP1 mutants [2]: 2–3 fold
Susceptibility in CRISPR-edited G1612V and D1863Y PfQRP1 lines [2]: reduced susceptibility
CC50 (HepG2 cells; [9]): 8800 nM
CC50 (HepG2 cells; [10]): 80 nM
Shift in IC50 in compound 22-selected clones versus parental Dd2-Polδ [3]: small but consistent shift in IC50
Drop in potency for a 10 h pulse compared with continuous exposure for 72 h [4]: 3–4 fold
Stage-specificity [4]: did not demonstrate a strong stage-specificity
EC50 (S. mansoni schistosomula; [11]): 340 nM
EC50 (S. mansoni schistosomula; [12]): 310 nM
EC50 (S. mansoni schistosomula; read-out: Motility EC50): 280 nM
Selectivity index HepG2/3D7 (P. falciparum 3D7): 8.2
IC50 (P. falciparum 3D7; [13]): 9.7 nM
Selectivity index HepG2/Dd2 (P. falciparum Dd2 [5]): 5.7
IC50 (P. falciparum Dd2 [5]; [14]): 14 nM
Potency against panel of geographically distinct strains [6]: potencies similar to those recorded for the lab strain Dd2

O=[N+]([O-])c1ccc2nc(Nc3cc(C(F)(F)F)ccc3F)c(Nc3cc(C(F)(F)F)ccc3F)nc2c1 [Compound 33]
Rate of parasite killing (P. falciparum Dd2 [1]): rapidly reduced parasitemia
Effect of D1829 stop / D1829A PfQRP1 mutation on IC50 [2]: not affected
CC50 (HepG2 cells; [9]): 27500 nM
CC50 (HepG2 cells; [10]): 100 nM
Shift in IC50 in compound 22-selected clones versus parental Dd2-Polδ [3]: unexpectedly not
Drop in potency for a 10 h pulse compared with continuous exposure for 72 h [4]: 3–4 fold
Stage-specificity [4]: did not demonstrate a strong stage-specificity
EC50 (S. mansoni schistosomula; [11]): 150 nM
EC50 (S. mansoni schistosomula; [12]): 150 nM
EC50 (S. mansoni schistosomula; read-out: Motility EC50): 150 nM
Selectivity index HepG2/3D7 (P. falciparum 3D7): 22.2
IC50 (P. falciparum 3D7; [13]): 4.5 nM
Selectivity index HepG2/Dd2 (P. falciparum Dd2 [5]): 14.1
IC50 (P. falciparum Dd2 [5]; [14]): 7.1 nM
Potency against panel of geographically distinct strains [6]: potencies similar to those recorded for the lab strain Dd2

Brc1ccc(Nc2nc3ccccc3nc2Nc2ccc(Br)cc2)cc1 [MMV007224, 2-N,3-N-bis(4-bromophenyl)quinoxaline-2,3-diamine]
Effect of D1829 stop / D1829A PfQRP1 mutation on IC50 [2]: less potent
Activity against P. berghei liver stage parasites [7]: did not show activity
Activity against S. mansoni adult worms (S. mansoni adult worms): among the most active hits
Levels of 'free' heme or hemozoin relative to untreated controls [8]: no significant changes
Undigested hemoglobin levels [8]: modest concentration-dependent increase
IC50 (β-hematin formation): 146000 nM and 198000 nM

O=C(Nc1ccc(Cl)c(Cl)c1)Nc1ccc(Cl)c(Cl)c1 [MMV665852]
Activity against S. mansoni adult worms (S. mansoni adult worms): most active compounds
